Measurements published in US20090291942A1, “IMIDAZO PYRIDINE DERIVATIVES” (priority 2008, published 2009).
Structures can show the parent of a compound that is named as a salt.

The compounds below were run against T1, human GPR4 (Homo sapiens, UniProt P46093) (assay: Cell-based assay for human GPR4 activity (pH-induced cAMP formation, HTRF)). Conditions: HeLa cells stably expressing human GPR4, pH-induced cAMP formation.
T1 construct: expressed in transfected cells
Description: a) Cell-Based Assay for Human GPR4 Activity
HeLa cells stably expressing human GPR4 were established by transfecting the cells with a construct containing the human GPR4 coding sequence. The cells were grown in DMEM/HAM's F12 medium supplemented with 10% fetal calf serum (FCS), 100 u/ml penicillin, 100 μg/ml streptomycin and 400 μg/ml G418 and 10 mM Hepes pH 8.0. pH-induced formation of cAMP was determined using the HTRF technology as provided by CisBio Inc. The cells were seeded in 384-well plates and cultured for 24 hours at 37° C., 5% CO2 before performing the assay. Medium was removed and 10 μl buffer A (HBS, 10 mM Hepes, pH 8, 2 mM IBMX) was added. For compound testing, buffer A with 2× concentrated compounds was used. Cells were incubated for 15 min at room temperature. 10 μl buffer B (HBS, 30 mM Hepes, specific pH) was added to reach the appropriate final pH for stimulation (see below) and incubation was continued for 15 min at room temperature. […] HBS: 130 mM NaCl, 0.9 mM NaH2PO4, 5.4 mM KCl, 0.8 mM MgSO4, CaCl2 1.8 mM, 25 mM glucose, 10-30 mM Hepes. Adjustment of HBS buffers: Bf A Bf B Final stimulation pH (1 volume buffer A+1 volume buffer B)
Compounds were diluted from fresh stock solutions at 10 mM in DMSO to 2 mM and then used for serial dilutions in DMSO.

T1 sequence (P46093 whole entry): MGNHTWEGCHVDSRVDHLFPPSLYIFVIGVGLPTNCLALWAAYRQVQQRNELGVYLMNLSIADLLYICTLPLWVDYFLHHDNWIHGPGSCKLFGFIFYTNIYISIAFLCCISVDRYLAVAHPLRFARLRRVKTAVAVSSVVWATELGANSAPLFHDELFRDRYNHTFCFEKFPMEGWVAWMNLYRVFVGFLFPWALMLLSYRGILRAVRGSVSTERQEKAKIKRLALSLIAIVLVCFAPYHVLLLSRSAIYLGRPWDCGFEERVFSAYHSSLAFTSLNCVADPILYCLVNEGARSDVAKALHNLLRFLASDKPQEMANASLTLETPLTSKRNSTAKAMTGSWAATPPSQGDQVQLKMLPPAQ

SMILES | IC50
CCc1nc2c(C)cc(C)nc2n1Cc1ccc(C#CCN2CCN(C(C)C)CC2)cc1 [Example 1, 2-Ethyl-3-{4-[3-(4-isopropyl-piperazin-1-yl)-prop-1-ynyl]-benzyl}-5,7-dimethyl-3H-imidazo[4,5-b]pyridine] | 189 nM
CCc1nc2c(C)cc(C)nc2n1Cc1ccc(C#CCN2CCCC2)cc1 [Example 3, 2-Ethyl-5,7-dimethyl-3-[4-(3-pyrrolidin-1-yl-prop-1-ynyl)-benzyl]-3H-imidazo[4,5-b]pyridine] | 584 nM
CCc1nc2c(C)cc(C)nc2n1Cc1ccc(C#CCNCCN2CCCC2)cc1 [Example 4, {3-[4-(2-Ethyl-5,7-dimethyl-imidazo[4,5-b]pyridin-3-ylmethyl)-phenyl]-prop-2-ynyl}-(2-pyrrolidin-1-yl-ethyl)-amine] | 704 nM
CCc1nc2c(C)cc(C)nc2n1Cc1ccc(CCN2CCC(N3CCCCC3)CC2)cc1 [Example 5, 1′-{2-[4-(2-Ethyl-5,7-dimethyl-imidazo[4,5-b]pyridin-3-ylmethyl)-phenyl]-ethyl}-[1,4′]bipiperidinyl] | 227 nM
CCc1nc2c(C)cc(C)nc2n1Cc1ccc(CCCN2CCN(C)CC2)cc1 [Example 6, 2-Ethyl-5,7-dimethyl-3-{4-[3-(4-methyl-piperazin-1-yl)-propyl]-benzyl}-3H-imidazo[4,5-b]pyridine dihydrochloride] | 395 nM
CCc1nc2c(C)cc(C)nc2n1Cc1ccc(CCCN2CCN(C(C)C)CC2)cc1 [Example 8, 2-Ethyl-3-{4-[3-(4-isopropyl-piperazin-1-yl)-propyl]-benzyl}-5,7-dimethyl-3H-imidazo[4,5-b]pyridine dihydrochloride] | 274 nM
CCc1nc2c(C)cc(C)nc2n1Cc1ccc(CCCN2CCN(C3CC3)CC2)cc1 [Example 9, 3-{4-[3-(4-Cyclopropyl-piperazin-1-yl)-propyl]-benzyl}-2-ethyl-5,7-dimethyl-3H-imidazo[4,5-b]pyridine] | 341 nM
CCc1nc2c(C)cc(C)nc2n1Cc1ccc(CCCN2CCN(C(C)CC)CC2)cc1 (stereo not shown) [Example 11, 3-{4-[3-(4-sec-Butyl-piperazin-1-yl)-propyl]-benzyl}-2-ethyl-5,7-dimethyl-3H-imidazo[4,5-b]pyridine] | 479 nM
CCCCCN1CCN(CCCc2ccc(Cn3c(CC)nc4c(C)cc(C)nc43)cc2)CC1 [Example 13, 2-Ethyl-5,7-dimethyl-3-{4-[3-(4-pentyl-piperazin-1-yl)-propyl]-benzyl}-3H-imidazo[4,5-b]pyridine] | 662 nM
CCCC(C)N1CCN(CCCc2ccc(Cn3c(CC)nc4c(C)cc(C)nc43)cc2)CC1 (stereo not shown) [Example 14, 2-Ethyl-5,7-dimethyl-3-(4-{3-[4-(1-methyl-butyl)-piperazin-1-yl]-propyl}-benzyl)-3H-imidazo[4,5-b]pyridine] | 217 nM
CCc1nc2c(C)cc(C)nc2n1Cc1ccc(CCCN2CCN(CCC(C)C)CC2)cc1 [Example 16, 2-Ethyl-5,7-dimethyl-3-(4-{3-[4-(3-methyl-butyl)-piperazin-1-yl]-propyl}-benzyl)-3H-imidazo[4,5-b]pyridine] | 283 nM
CCc1nc2c(C)cc(C)nc2n1Cc1ccc(CCCN2CCN(CCOC)CC2)cc1 [Example 20, 2-Ethyl-3-(4-{3-[4-(2-methoxy-ethyl)-piperazin-1-yl]-propyl}-benzyl)-5,7-dimethyl-3H-imidazo[4,5-b]pyridine dihydrochloride] | 953 nM
CCc1nc2c(C)cc(C)nc2n1Cc1ccc(CCCN2CCN(CCN(C)C)CC2)cc1 [Example 21, [2-(4-{3-[4-(2-Ethyl-5,7-dimethyl-imidazo[4,5-b]pyridin-3-ylmethyl)-phenyl]-propyl}-piperazin-1-yl)-ethyl]-dimethyl-amine dihydrochloride] | 345 nM
CCc1nc2c(C)cc(C)nc2n1Cc1ccc(CCCN2CCN(CC)C(C)C2)cc1 (stereo not shown) [Example 22, 2-Ethyl-3-{4-[3-(4-ethyl-3-methyl-piperazin-1-yl)-propyl]-benzyl}-5,7-dimethyl-3H-imidazo[4,5-b]pyridine dihydrochloride] | 223 nM
CCc1nc2c(C)cc(C)nc2n1Cc1ccc(CCCN2CCN(C(C)C)C(C)C2)cc1 (stereo not shown) [Example 23, 2-Ethyl-3-{4-[3-(4-isopropyl-3-methyl-piperazin-1-yl)-propyl]-benzyl}-5,7-dimethyl-3H-imidazo[4,5-b]pyridine] | 253 nM
CCc1nc2c(C)cc(C)nc2n1Cc1ccc(CCCN2CCN(C)C[C@@H]2C(C)C)cc1 [Example 24, 2-Ethyl-3-{4-[3-((S)-2-isopropyl-4-methyl-piperazin-1-yl)-propyl]-benzyl}-5,7-dimethyl-3H-imidazo[4,5-b]pyridine dihydrochloride] | 961 nM
CCc1nc2c(C)cc(C)nc2n1Cc1ccc(CCCN2CCN(C(C)C)C(CC)C2)cc1 (stereo not shown) [Example 25, 2-Ethyl-3-{4-[3-(3-ethyl-4-isopropyl-piperazin-1-yl)-propyl]-benzyl}-5,7-dimethyl-3H-imidazo[4,5-b]pyridine] | 364 nM
CCc1nc2c(C)cc(C)nc2n1Cc1ccc(CCCN2C[C@H]3C[C@@H]2CN3CC)cc1 [Example 26, 2-Ethyl-3-{4-[3-((1R,4R)-5-ethyl-2,5-diaza-bicyclo[2.2.1]hept-2-yl)-propyl]-benzyl}-5,7-dimethyl-3H-imidazo[4,5-b]pyridine] | 877 nM
CCc1nc2c(C)cc(C)nc2n1Cc1ccc(CCCN2C[C@H]3C[C@@H]2CN3CC(C)C)cc1 [Example 27, 2-Ethyl-3-{4-[3-((1R,4R)-5-isobutyl-2,5-diaza-bicyclo[2.2.1]hept-2-yl)-propyl]-benzyl}-5,7-dimethyl-3H-imidazo[4,5-b]pyridine dihydrochloride] | 411 nM
CCc1nc2c(C)cc(C)nc2n1Cc1ccc(CCCN2C[C@H]3C[C@@H]2CN3CC2CC2)cc1 [Example 28, 3-{4-[3-((1R,4R)-5-Cyclopropylmethyl-2,5-diaza-bicyclo[2.2.1]hept-2-yl)-propyl]-benzyl}-2-ethyl-5,7-dimethyl-3H-imidazo[4,5-b]pyridine] | 436 nM

More lines, now with the values ahead:

IC50 | SMILES
73 nM | CCc1nc2c(C)cc(C)nc2n1Cc1ccc(C#CCN2CCC(N3CCCCC3)CC2)cc1 [Example 2, 1′-{3-[4-(2-Ethyl-5,7-dimethyl-imidazo[4,5-b]pyridin-3-ylmethyl)-phenyl]-prop-2-ynyl}-[1,4′]bipiperidine]
39 nM | CCCN1CCN(CCCc2ccc(Cn3c(CC)nc4c(C)cc(C)nc43)cc2)CC1 [Example 7, 2-Ethyl-5,7-dimethyl-3-{4-[3-(4-propyl-piperazin-1-yl)-propyl]-benzyl}-3H-imidazo[4,5-b]pyridine]
123 nM | CCCCN1CCN(CCCc2ccc(Cn3c(CC)nc4c(C)cc(C)nc43)cc2)CC1 [Example 10, 3-{4-[3-(4-Butyl-piperazin-1-yl)-propyl]-benzyl}-2-ethyl-5,7-dimethyl-3H-imidazo[4,5-b]pyridine]
53 nM | CCc1nc2c(C)cc(C)nc2n1Cc1ccc(CCCN2CCN(C(C)(C)C)CC2)cc1 [Example 12, 3-{4-[3-(4-tert-Butyl-piperazin-1-yl)-propyl]-benzyl}-2-ethyl-5,7-dimethyl-3H-imidazo[4,5-b]pyridine]
50 nM | CCc1nc2c(C)cc(C)nc2n1Cc1ccc(CCCN2CCN(C(CC)CC)CC2)cc1 [Example 15, 2-Ethyl-3-(4-{3-[4-(1-ethyl-propyl)-piperazin-1-yl]-propyl}-benzyl)-5,7-dimethyl-3H-imidazo[4,5-b]pyridine]
178 nM | CCc1nc2c(C)cc(C)nc2n1Cc1ccc(CCCN2CCN(CC3CCC3)CC2)cc1 [Example 17, 3-{4-[3-(4-Cyclobutylmethyl-piperazin-1-yl)-propyl]-benzyl}-2-ethyl-5,7-dimethyl-3H-imidazo[4,5-b]pyridine dihydrochloride]
186 nM | CCc1nc2c(C)cc(C)nc2n1Cc1ccc(CCCN2CCN(C3CCCC3)CC2)cc1 [Example 18, 3-{4-[3-(4-Cyclopentyl-piperazin-1-yl)-propyl]-benzyl}-2-ethyl-5,7-dimethyl-3H-imidazo[4,5-b]pyridine]
182 nM | CCc1nc2c(C)cc(C)nc2n1Cc1ccc(CCCN2CCN(C3CCCCC3)CC2)cc1 [Example 19, 3-{4-[3-(4-Cyclohexyl-piperazin-1-yl)-propyl]-benzyl}-2-ethyl-5,7-dimethyl-3H-imidazo[4,5-b]pyridine dihydrochloride]
94 nM | Cc1cc(C)c2nc(C)n(Cc3ccc(/C=C/CN4CCC(N5CCCCC5)CC4)cc3)c2n1 [Example 30, 1′-{(E)-3-[4-(2,5,7-Trimethyl-imidazo[4,5-b]pyridin-3-ylmethyl)-phenyl]-allyl}-[1,4′]bipiperidinyl]
144 nM | CCc1nc2c(C)cc(C)nc2n1Cc1ccc(/C=C/CN2CCC(N(CC)CC)CC2)cc1 [Example 31, Diethyl-(1-{(E)-3-[4-(2-ethyl-5,7-dimethyl-imidazo[4,5-b]pyridin-3-ylmethyl)-phenyl]-allyl}-piperidin-4-yl)-amine dihydrochloride]
177 nM | CCc1nc2c(C)cc(C)nc2n1Cc1ccc(/C=C/CN2CCC(N3CCCC3)CC2)cc1 [Example 32, 2-Ethyl-5,7-dimethyl-3-{4-[(E)-3-(4-pyrrolidin-1-yl-piperidin-1-yl)-propenyl]-benzyl}-3H-imidazo[4,5-b]pyridine]
